Source: the NIST ThermoML archive (doi:10.1016/j.fluid.2013.07.061)
Numbers after ± are expanded uncertainties.

Experiments:
[1] = Molar enthalpy of transition or fusion; conditions: DSC
[2] = DTA; for Normal melting temperature: Crystal 1

Row | Molar enthalpy of transition or fusion ([1]; Crystal 1) [kJ/mol] | Molar enthalpy of transition or fusion ([1]; Crystal 2) [kJ/mol] | Molar enthalpy of transition or fusion ([1]; Crystal 3) [kJ/mol] | Normal melting temperature [2] [°C] | Triple point temperature ([2]; Crystal 2) [K] | Triple point temperature ([2]; Crystal 3) [K] | Compound
1 | 5.15 ± 0.19 | 2.78 ± 0.14 | 7.89 ± 0.42 | 95.1 ± 0.4 | 350.96 ± 0.39 | 310.6 ± 0.73 | CCC[N+]1(C)CCCCC1.F[P-](F)(F)(F)(F)F [1-methyl-1-propylpiperidinium hexafluorophosphate]
2 | 3.66 ± 0.32 | 2.3 ± 0.2 | 2.76 ± 0.21 | 110.5 ± 1.4 | 360.88 ± 1.7 | 348.58 ± 1.3 | CCC[N+]1(C)CCCC1.F[P-](F)(F)(F)(F)F [1-methyl-1-propylpyrrolidinium hexafluorophosphate]
3 | 16.4 ± 0.64 | 2.06 ± 2.3 | 2.1 ± 0.22 | 251.1 ± 0.9 | 360.7 ± 0.7 | 303.95 ± 0.39 | CCCC[N+](CCCC)(CCCC)CCCC.F[P-](F)(F)(F)(F)F [tetrabutylammonium hexafluorophosphate]
4 | 14.7 ± 0.37 |  | 1.81 ± 0.14 | 225.5 ± 0.4 |  | 265.37 ± 0.39 | CCCC[P+](CCCC)(CCCC)CCCC.F[P-](F)(F)(F)(F)F [tetrabutylphosphonium hexafluorophosphate]
